From patent US20190055576A1, “USE OF HERBICIDE-TOLERANT PROTEIN” (BEIJING DABEINONG TECHNOLOGY GROUP CO., LTD., priority 2016, published 2019)

Key:
Type in all cases: in vivo
[1] = test system: transgenic soybean plants (Gm cytoplasmic/chloroplastic ALT-1-01, ALT-2-01, ALT-3-01); test: Glyphosate tolerance of transgenic soybean plants (ALT + EPSPS), herbicide damage rate; conditions: 840 g ae/ha, 1-fold field concentration, 14 days after spraying
Excerpt: (§1) The herbicide tolerance effects of Gm cytoplasmic ALT-1-01 soybean plants, Gm chloroplastic ALT-1-01 soybean plants, Gm cytoplasmic ALT-2-01 soybean plants, Gm chloroplastic ALT-2-01 soybean plants, Gm cytoplasmic ALT-3-01 soybean plants, Gm chloroplastic ALT-3-01 soybean plants and wild-type soybean plants on glyphosate were detected (at seedling stage), respectively.
(§2) 2 strains from Gm cytoplasmic ALT-1-01 soybean plants, Gm chloroplastic ALT-1-01 soybean plants, Gm cytoplasmic ALT-2-01 soybean plants, Gm chloroplastic ALT-2-01 soybean plants, Gm cytoplasmic ALT-3-01 soybean plants, Gm chloroplastic ALT-3-01 soybean plants and wild-type soybean plants were respectively taken each, and 10-15 plants were selected from each strain and tested. The plants above were sprayed with glyphosate (840 g ae/ha, 1-fold field concentration) and a blank solvent (water). The herbicide damage rate was measured for each plant according to the phytotoxicity symptoms 14 days after spraying (14 DAT): herbicide damage rate (%)=Σ(number of damaged plants at the same level×level number)/(total number of plants×highest level).

[2] = test system: wild-type soybean plants (CK1); test: Glyphosate tolerance of wild-type soybean plants, herbicide damage rate; conditions: 840 g ae/ha, 1-fold field concentration, 14 days after spraying
Excerpt: as §1, §2

[3] = test system: transgenic Arabidopsis thaliana T1 plants (ALT-1-01, ALT-2-01, ALT-3-01; cytoplasmic or chloroplastic); test: Herbicide tolerance of transgenic Arabidopsis thaliana T1 plants expressing thifensulfuron hydrolase, resistance classes counted after spraying; conditions: for Highly resistant (number of plants with growth status consistent with blank solvent group) / Moderately resistant (number of plants with bolting height less than 1/2 of blank solvent group) / Non-resistant (number of plants dead) / Poorly resistant (number of plants still not capable of bolting): 1-fold field concentration (g ai/ha: Sulfometuron-methyl 30, iodosulfuron-methyl 10, mesosulfuron 14, oxasulfuron 60), 14 days after spraying; for ability of the transformed plants to degrade the herbicide: all the transformed Arabidopsis thaliana T1 plants (ALT-1, ALT-2 and ALT-3), 1-fold field concentration
Excerpt: (§3) T1 transformants were initially selected from the background of untransformed seeds using a glufosinate selection scheme. About 40000 T1 seeds were screened, and 380 T1 positive transformants (PAT gene) were identified with a transformation efficiency of about 0.95%. The plants that were transformed with the recombinant expression vector DBN100632 were Arabidopsis thaliana plants having an ALT-1-01 nucleotide sequence located in the cytoplasm introduced (At cytoplasmic ALT-1-01), and the plants that were transformed with the recombinant expression vector DBN100631 were Arabidopsis thaliana plants having an ALT-1-01 nucleotide sequence located in the chloroplast introduced (At chloroplastic ALT-1-01); the plants that were transformed with the recombinant expression vector DBN100634 were Arabidopsis thaliana plants having an ALT-2-01 nucleotide sequence located in the cytoplasm introduced (At cytoplasmic ALT-2-01), and the plants that were transformed with the recombinant expression vector DBN100633 were Arabidopsis thaliana plants having an ALT-2-01 nucleotide sequence located in the chloroplast introduced (At chloroplastic ALT-2-01); and the plants that were transformed with the recombinant expression vector DBN100636 were Arabidopsis thaliana plants having an ALT-3-01 nucleotide sequence located in the cytoplasm introduced (At cytoplasmic ALT-3-01), and the plants that were transformed with the recombinant expression vector DBN100635 were Arabidopsis thaliana plants having an ALT-3-01 nucleotide sequence located in the chloroplast introduced (At chloroplastic ALT-3-01). The herbicide tolerance effects of At cytoplasmic ALT-1-01 T1 plants, At chloroplastic ALT-1-01 T1 plants, At cytoplasmic ALT-2-01 T1 plants, At chloroplastic ALT-2-01 T1 plants, At cytoplasmic ALT-3-01 T1 plants, At chloroplastic ALT-3-01 T1 plants and wild-type Arabidopsis thaliana plants on Sulfometuron-methyl were detected (14 days after sowing), respectively.
(§4) At cytoplasmic ALT-1-01 T1 plants, At chloroplastic ALT-1-01 T1 plants, At cytoplasmic ALT-2-01 T1 plants, At chloroplastic ALT-2-01 T1 plants, At cytoplasmic ALT-3-01 T1 plants, At chloroplastic ALT-3-01 T1 plants and wild-type Arabidopsis thaliana plants were sprayed with Sulfometuron-methyl (30 g ai/ha, 1-fold field concentration) and a blank solvent (water), respectively. Plants were counted for the resistance situations 14 days after spraying: those having a consistent growth status with the blank solvent (water) group after 14 days were classified as highly resistant plants, those having a bolting height less than ½ of that of the blank solvent (water) group after 14 days were classified as moderately resistant plants, those still not capable of bolting after 14 days were classified as poorly resistant plants, and those dead after 14 days were classified as non-resistant plants. Since each Arabidopsis thaliana T1 plant was an independent transformation event, a significant difference in individual T1 responses could be expected at a given dose.
(§5) At cytoplasmic ALT-1-01 T1 plants, At chloroplastic ALT-1-01 T1 plants, At cytoplasmic ALT-2-01 T1 plants, At chloroplastic ALT-2-01 T1 plants, At cytoplasmic ALT-3-01 T1 plants, At chloroplastic ALT-3-01 T1 plants and wild-type Arabidopsis thaliana plants in Example 4 were sprayed with iodosulfuron-methyl (10 g ai/ha, 1-fold field concentration), mesosulfuron (14 g ai/ha, 1-fold field concentration) and oxasulfuron (60 g ai/ha, 1-fold field concentration), respectively, in addition to Sulfometuron-methyl (30 g ai/ha, 1-fold field concentration) and the blank solvent (water). […]

[4] = test system: wild-type Arabidopsis thaliana plants; test: Herbicide tolerance of wild-type Arabidopsis thaliana plants, resistance classes counted after spraying; conditions: 1-fold field concentration (g ai/ha: Sulfometuron-methyl 30, iodosulfuron-methyl 10, mesosulfuron 14, oxasulfuron 60), 14 days after spraying
Excerpt: as §3, §4, §5

[5] = At chloroplastic ALT-1-01 T1 plants
[6] = At chloroplastic ALT-2-01 T1 plants
[7] = At chloroplastic ALT-3-01 T1 plants
[8] = At cytoplasmic ALT-1-01 T1 plants
[9] = At cytoplasmic ALT-2-01 T1 plants
[10] = At cytoplasmic ALT-3-01 T1 plants

Structure (SMILES)	Highly resistant (number of plants with growth status consistent with blank solvent group) [3, 5]	Moderately resistant (number of plants with bolting height less than 1/2 of blank solvent group) [3, 5]	Non-resistant (number of plants dead) [3, 5]	Poorly resistant (number of plants still not capable of bolting) [3, 5]	Highly resistant (number of plants with growth status consistent with blank solvent group) [3, 6]	Moderately resistant (number of plants with bolting height less than 1/2 of blank solvent group) [3, 6]	Non-resistant (number of plants dead) [3, 6]	Poorly resistant (number of plants still not capable of bolting) [3, 6]	Highly resistant (number of plants with growth status consistent with blank solvent group) [3, 7]	Moderately resistant (number of plants with bolting height less than 1/2 of blank solvent group) [3, 7]	Non-resistant (number of plants dead) [3, 7]	Poorly resistant (number of plants still not capable of bolting) [3, 7]	Highly resistant (number of plants with growth status consistent with blank solvent group) [3, 8]	Moderately resistant (number of plants with bolting height less than 1/2 of blank solvent group) [3, 8]	Non-resistant (number of plants dead) [3, 8]	Poorly resistant (number of plants still not capable of bolting) [3, 8]	Highly resistant (number of plants with growth status consistent with blank solvent group) [3, 9]	Moderately resistant (number of plants with bolting height less than 1/2 of blank solvent group) [3, 9]	Non-resistant (number of plants dead) [3, 9]	Poorly resistant (number of plants still not capable of bolting) [3, 9]	further results
O=C(O)CNCP(=O)(O)O [glyphosate, N-phosphonomethylglycine]	–	–	–	–	–	–	–	–	–	–	–	–	–	–	–	–	–	–	–	–	glyphosate herbicide damage rate ([1]; Gm chloroplastic ALT-1-01 soybean plants): ~0%; glyphosate herbicide damage rate ([1]; Gm chloroplastic ALT-2-01 soybean plants): ~0%; glyphosate herbicide damage rate ([1]; Gm chloroplastic ALT-3-01 soybean plants): ~0%; glyphosate herbicide damage rate ([1]; Gm cytoplasmic ALT-1-01 soybean plants): ~0%; glyphosate herbicide damage rate ([1]; Gm cytoplasmic ALT-2-01 soybean plants): ~0%; glyphosate herbicide damage rate ([1]; Gm cytoplasmic ALT-3-01 soybean plants): ~0%; glyphosate herbicide damage rate [2]: not less than 90%
COC(=O)c1ccc(I)cc1S(=O)(=O)NC(=O)Nc1nc(C)nc(OC)n1 [iodosulfuron-methyl]	0	0	30	0	0	0	31	0	0	0	32	0	0	0	29	0	0	0	30	0	Highly resistant (number of plants with growth status consistent with blank solvent group) [3, 10]: 0; Moderately resistant (number of plants with bolting height less than 1/2 of blank solvent group) [3, 10]: 0; Non-resistant (number of plants dead) [3, 10]: 30; Poorly resistant (number of plants still not capable of bolting) [3, 10]: 0; ability of the transformed plants to degrade the herbicide [3]: did not exhibit the ability to degrade; Highly resistant (number of plants with growth status consistent with blank solvent group) [4]: 0; Moderately resistant (number of plants with bolting height less than 1/2 of blank solvent group) [4]: 0; Non-resistant (number of plants dead) [4]: 29; Poorly resistant (number of plants still not capable of bolting) [4]: 0
COc1cc(OC)nc(NC(=O)NS(=O)(=O)c2cc(CNS(C)(=O)=O)ccc2C(=O)O)n1 [mesosulfuron]	0	0	32	0	0	0	30	0	0	0	32	0	0	0	29	0	0	0	32	0	Highly resistant (number of plants with growth status consistent with blank solvent group) [3, 10]: 0; Moderately resistant (number of plants with bolting height less than 1/2 of blank solvent group) [3, 10]: 0; Non-resistant (number of plants dead) [3, 10]: 30; Poorly resistant (number of plants still not capable of bolting) [3, 10]: 0; ability of the transformed plants to degrade the herbicide [3]: did not exhibit the ability to degrade; Highly resistant (number of plants with growth status consistent with blank solvent group) [4]: 0; Moderately resistant (number of plants with bolting height less than 1/2 of blank solvent group) [4]: 0; Non-resistant (number of plants dead) [4]: 28; Poorly resistant (number of plants still not capable of bolting) [4]: 0
Cc1cc(C)nc(NC(=O)NS(=O)(=O)c2ccccc2C(=O)OC2COC2)n1 [oxasulfuron]	0	0	30	0	0	0	30	0	0	0	31	0	0	0	28	0	0	0	30	0	Highly resistant (number of plants with growth status consistent with blank solvent group) [3, 10]: 0; Moderately resistant (number of plants with bolting height less than 1/2 of blank solvent group) [3, 10]: 0; Non-resistant (number of plants dead) [3, 10]: 30; Poorly resistant (number of plants still not capable of bolting) [3, 10]: 0; ability of the transformed plants to degrade the herbicide [3]: did not exhibit the ability to degrade; Highly resistant (number of plants with growth status consistent with blank solvent group) [4]: 0; Moderately resistant (number of plants with bolting height less than 1/2 of blank solvent group) [4]: 0; Non-resistant (number of plants dead) [4]: 28; Poorly resistant (number of plants still not capable of bolting) [4]: 0
